Data: ChEMBL document CHEMBL1133534, “1,3-Diaryl-4,5,6,7-tetrahydro-2H-isoindole derivatives: a new series of potent and selective COX-2 inhibitors in which a sulfonyl group is not a structural requisite” (J Med Chem, 2000)

molecular target: T1, Prostaglandin G/H synthase 1 (Mus musculus, UniProt P22437); assay: Inhibition against prostaglandin G/H synthase 1 from mouse resident macrophages
T1 sequence (P22437 whole entry): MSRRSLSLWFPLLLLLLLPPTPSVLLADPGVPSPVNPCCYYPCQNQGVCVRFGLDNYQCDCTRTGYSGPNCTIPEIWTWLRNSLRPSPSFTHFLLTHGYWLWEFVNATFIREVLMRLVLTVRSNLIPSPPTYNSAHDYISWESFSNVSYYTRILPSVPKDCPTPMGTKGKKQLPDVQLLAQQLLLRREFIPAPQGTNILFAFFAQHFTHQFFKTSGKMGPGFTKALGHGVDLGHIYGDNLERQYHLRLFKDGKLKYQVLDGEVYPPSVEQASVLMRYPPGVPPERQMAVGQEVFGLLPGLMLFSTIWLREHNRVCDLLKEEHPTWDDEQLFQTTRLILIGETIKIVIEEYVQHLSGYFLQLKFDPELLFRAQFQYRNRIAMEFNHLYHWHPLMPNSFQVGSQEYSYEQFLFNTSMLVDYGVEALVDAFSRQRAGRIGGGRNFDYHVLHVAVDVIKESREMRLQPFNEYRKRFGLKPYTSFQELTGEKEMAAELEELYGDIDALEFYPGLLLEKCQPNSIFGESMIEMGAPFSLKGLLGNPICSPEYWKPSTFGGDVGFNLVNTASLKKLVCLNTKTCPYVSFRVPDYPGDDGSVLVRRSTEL

Compound	IC50 [µM]
CSc1ccc(-c2[nH]c(-c3ccc(SC)cc3)c3c2CCCC3)cc1	0.5
CS(=O)(=O)c1ccc(-c2[nH]c(-c3ccc(F)cc3)c3c2C2CCC3C2)cc1 (centres undefined)	> 5
c1ccc(-c2cc(-c3ccccc3)n3c2CCC3)cc1	< 1
c1ccc(-c2cc3n(c2-c2ccccc2)CCC3)cc1	< 1
CC1Cc2c(-c3ccccc3)[nH]c(-c3ccccc3)c2CC1C (centres undefined)	1
c1ccc(C2NC(c3ccccc3)c3ccccc32)cc1 (centres undefined)	> 2.5
Fc1ccc(-c2[nH]c(-c3ccc(-n4ccnc4)cc3)c3c2CCCC3)cc1	0.5
c1ccc(-c2sc(-c3ccccc3)c3ccccc23)cc1	1
CC1=C(C)Cc2c(-c3ccccc3)[nH]c(-c3ccccc3)c2C1	> 0.1
Nn1c(-c2ccccc2)c2c(c1-c1ccccc1)CCCC2	1

molecular target: T2, Prostaglandin G/H synthase 2 (Mus musculus, UniProt Q05769); assay: Inhibition against prostaglandin G/H synthase 2 from mouse resident macrophages
T2 sequence (Q05769 whole entry): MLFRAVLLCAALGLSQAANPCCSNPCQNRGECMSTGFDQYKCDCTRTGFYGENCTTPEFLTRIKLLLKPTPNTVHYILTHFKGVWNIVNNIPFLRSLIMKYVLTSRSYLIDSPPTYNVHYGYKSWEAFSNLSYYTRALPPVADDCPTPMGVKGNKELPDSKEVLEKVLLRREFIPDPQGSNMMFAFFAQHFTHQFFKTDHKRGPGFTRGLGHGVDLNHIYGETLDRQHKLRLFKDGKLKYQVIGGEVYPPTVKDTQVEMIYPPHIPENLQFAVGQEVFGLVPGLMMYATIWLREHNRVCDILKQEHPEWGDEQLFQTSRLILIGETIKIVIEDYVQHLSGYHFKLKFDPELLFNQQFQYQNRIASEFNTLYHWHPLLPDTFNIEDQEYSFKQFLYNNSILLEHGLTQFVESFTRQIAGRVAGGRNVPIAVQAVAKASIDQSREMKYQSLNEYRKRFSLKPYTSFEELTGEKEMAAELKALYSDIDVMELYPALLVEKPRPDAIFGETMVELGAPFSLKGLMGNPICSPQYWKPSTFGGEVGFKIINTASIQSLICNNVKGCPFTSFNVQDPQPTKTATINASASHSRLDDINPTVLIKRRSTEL

Compound	IC50 [µM]
c1cc(-c2[nH]c(-c3ccncc3)c3c2C2CCC3C2)ccn1	> 0.1
CC1=C(C)Cc2c(c(-c3ccccc3)n(C)c2-c2ccccc2)C1	> 1
CC(=O)Nc1cc(-c2[nH]c(-c3ccc(F)c(NC(C)=O)c3)c3c2C2CCC3C2)ccc1F	> 0.1
CS(=O)(=O)c1ccc(-c2[nH]c(-c3ccc(S(C)(=O)=O)cc3)c3c2C2CCC3C2)cc1	> 10
Fc1ccc(C2NC(c3ccc(F)cc3)c3ccccc32)cc1 (centres undefined)	> 0.1
Clc1cc2c(cc1Cl)C(c1ccccc1)NC2c1ccccc1 (centres undefined)	> 0.1
CNc1cc(-c2[nH]c(-c3ccc(F)c(NC)c3)c3c2C2CCC3C2)ccc1F	> 0.1
c1ccc(CN2Cc3c(-c4ccccc4)[nH]c(-c4ccccc4)c3C2)cc1	> 0.1
CSc1ccc(-c2[nH]c(-c3ccc(SC)cc3)c3c2CCCC3)cc1	0.5
CS(=O)(=O)c1ccc(-c2[nH]c(-c3ccc(F)cc3)c3c2C2CCC3C2)cc1 (centres undefined)	0.7
c1ccc(-c2cc(-c3ccccc3)n3c2CCC3)cc1	0.05
c1ccc(-c2cc3n(c2-c2ccccc2)CCC3)cc1	0.01
CC1Cc2c(-c3ccccc3)[nH]c(-c3ccccc3)c2CC1C (centres undefined)	0.0031
O=C(O)Cn1c(-c2ccccc2)c2c(c1-c1ccccc1)CCCC2	> 0.1
Fc1ccc(-c2[nH]c(-c3ccc(-n4ccnc4)cc3)c3c2CCCC3)cc1	0.042
c1ccc(-c2sc(-c3ccccc3)c3ccccc23)cc1	0.0109
Cn1c(-c2ccccc2)c2c(c1-c1ccccc1)CCCC2	> 1
CC1=C(C)Cc2c(-c3ccccc3)[nH]c(-c3ccccc3)c2C1	0.0145
Nn1c(-c2ccccc2)c2c(c1-c1ccccc1)CCCC2	0.0018
